Measurements taken from ChEMBL document CHEMBL5512607, “Journey of Von Hippel-Lindau (VHL) E3 ligase in PROTACs design: From VHL ligands to VHL-based degraders” (Eur J Med Chem, 2024).
Each block holds one compound with its values, some of them ahead of it.

Assays:
[1] = biological target: von Hippel-Lindau disease tumor suppressor/Bromodomain-containing protein 4; assay: PROTAC activity at VHL/BRD4 in human 22Rv1 cells assessed as induction of BRD4 degradation by Immunoblot analysis
[2] = system: CWR22R; assay: Antiproliferative activity against human 22Rv1 cells assessed as reduction in cell viability incubated for 48 hrs by MTT assay; format: functional, cell-based; conditions: 22Rv1, 48 h
[3] = biological target: T1, von Hippel-Lindau disease tumor suppressor/Bromodomain-containing protein 3 (Homo sapiens, UniProt Q15059+P40337); assay: PROTAC activity at VHL/BRD3 in human 22Rv1 cells assessed as induction of BRD3 degradation by Immunoblot analysis; format: cell-based
Target sequence in this assay (Q15059 whole entry): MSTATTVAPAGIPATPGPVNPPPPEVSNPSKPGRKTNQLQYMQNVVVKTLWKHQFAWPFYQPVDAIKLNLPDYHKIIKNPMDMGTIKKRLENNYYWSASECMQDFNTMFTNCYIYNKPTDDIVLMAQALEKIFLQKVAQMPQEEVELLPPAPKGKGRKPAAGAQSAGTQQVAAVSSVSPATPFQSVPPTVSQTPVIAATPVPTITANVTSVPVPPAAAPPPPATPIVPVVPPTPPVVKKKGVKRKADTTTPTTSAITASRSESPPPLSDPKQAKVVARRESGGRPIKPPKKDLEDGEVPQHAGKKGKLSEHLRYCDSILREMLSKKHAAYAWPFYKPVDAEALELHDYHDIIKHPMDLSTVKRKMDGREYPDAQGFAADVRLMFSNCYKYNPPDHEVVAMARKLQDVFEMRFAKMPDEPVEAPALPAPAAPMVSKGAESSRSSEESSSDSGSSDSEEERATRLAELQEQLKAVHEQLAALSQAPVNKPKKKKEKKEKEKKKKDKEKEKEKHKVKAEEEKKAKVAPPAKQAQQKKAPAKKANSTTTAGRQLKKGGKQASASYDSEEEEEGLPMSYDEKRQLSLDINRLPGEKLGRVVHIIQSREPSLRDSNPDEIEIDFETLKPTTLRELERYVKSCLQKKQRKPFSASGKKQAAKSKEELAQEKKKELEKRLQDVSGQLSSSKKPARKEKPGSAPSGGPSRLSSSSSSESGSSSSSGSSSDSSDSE
Target sequence in this assay (P40337 whole entry): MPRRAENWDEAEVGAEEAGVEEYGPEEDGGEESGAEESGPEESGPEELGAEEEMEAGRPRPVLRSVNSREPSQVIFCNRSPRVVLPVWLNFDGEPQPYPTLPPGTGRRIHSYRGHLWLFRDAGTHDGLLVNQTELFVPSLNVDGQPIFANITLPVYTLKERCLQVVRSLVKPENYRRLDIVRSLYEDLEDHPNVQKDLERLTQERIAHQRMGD

[4] = biological target: T2, von Hippel-Lindau disease tumor suppressor/Bromodomain-containing protein 2 (Homo sapiens, UniProt P25440+P40337); assay: PROTAC activity at VHL/BRD2 in human 22Rv1 cells assessed as induction of BRD2 degradation by Immunoblot analysis; format: cell-based
Target sequence in this assay (P25440 whole entry): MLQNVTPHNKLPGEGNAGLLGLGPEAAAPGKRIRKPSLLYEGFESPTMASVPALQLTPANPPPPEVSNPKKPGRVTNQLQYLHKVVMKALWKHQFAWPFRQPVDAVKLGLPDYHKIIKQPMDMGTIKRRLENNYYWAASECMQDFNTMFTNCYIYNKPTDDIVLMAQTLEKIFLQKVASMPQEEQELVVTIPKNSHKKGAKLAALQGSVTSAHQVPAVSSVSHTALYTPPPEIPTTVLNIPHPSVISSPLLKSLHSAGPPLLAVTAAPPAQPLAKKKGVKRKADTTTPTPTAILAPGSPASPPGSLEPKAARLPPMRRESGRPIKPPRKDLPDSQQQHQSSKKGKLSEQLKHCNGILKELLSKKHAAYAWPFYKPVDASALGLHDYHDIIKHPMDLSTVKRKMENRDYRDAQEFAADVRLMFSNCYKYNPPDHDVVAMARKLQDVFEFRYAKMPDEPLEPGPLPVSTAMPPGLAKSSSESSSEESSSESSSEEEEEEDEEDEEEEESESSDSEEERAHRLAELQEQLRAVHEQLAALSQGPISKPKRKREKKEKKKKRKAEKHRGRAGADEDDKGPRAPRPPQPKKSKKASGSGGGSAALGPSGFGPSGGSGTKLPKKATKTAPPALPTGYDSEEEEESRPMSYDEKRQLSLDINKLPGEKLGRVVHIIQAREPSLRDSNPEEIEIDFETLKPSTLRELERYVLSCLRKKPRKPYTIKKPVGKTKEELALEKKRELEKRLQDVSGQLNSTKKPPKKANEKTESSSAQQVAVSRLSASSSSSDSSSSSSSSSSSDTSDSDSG
Target sequence in this assay (P40337 whole entry): as the sequence (P40337 whole entry) above

[5] = system: von Hippel-Lindau disease tumor suppressor/Bromodomain-containing protein 4; assay: PROTAC activity at VHL/BRD4 in human VCaP cells assessed as maximum degradation of BRD4 by Western blot analysis relative to control
[6] = biological target: T3, von Hippel-Lindau disease tumor suppressor/Androgen receptor (Homo sapiens, UniProt P10275+P40337); assay: PROTAC activity at VHL/AR in human LNCaP cells assessed as induction of AR degradation by Western blot analysis; format: cell-based
Target sequence in this assay (P10275 whole entry): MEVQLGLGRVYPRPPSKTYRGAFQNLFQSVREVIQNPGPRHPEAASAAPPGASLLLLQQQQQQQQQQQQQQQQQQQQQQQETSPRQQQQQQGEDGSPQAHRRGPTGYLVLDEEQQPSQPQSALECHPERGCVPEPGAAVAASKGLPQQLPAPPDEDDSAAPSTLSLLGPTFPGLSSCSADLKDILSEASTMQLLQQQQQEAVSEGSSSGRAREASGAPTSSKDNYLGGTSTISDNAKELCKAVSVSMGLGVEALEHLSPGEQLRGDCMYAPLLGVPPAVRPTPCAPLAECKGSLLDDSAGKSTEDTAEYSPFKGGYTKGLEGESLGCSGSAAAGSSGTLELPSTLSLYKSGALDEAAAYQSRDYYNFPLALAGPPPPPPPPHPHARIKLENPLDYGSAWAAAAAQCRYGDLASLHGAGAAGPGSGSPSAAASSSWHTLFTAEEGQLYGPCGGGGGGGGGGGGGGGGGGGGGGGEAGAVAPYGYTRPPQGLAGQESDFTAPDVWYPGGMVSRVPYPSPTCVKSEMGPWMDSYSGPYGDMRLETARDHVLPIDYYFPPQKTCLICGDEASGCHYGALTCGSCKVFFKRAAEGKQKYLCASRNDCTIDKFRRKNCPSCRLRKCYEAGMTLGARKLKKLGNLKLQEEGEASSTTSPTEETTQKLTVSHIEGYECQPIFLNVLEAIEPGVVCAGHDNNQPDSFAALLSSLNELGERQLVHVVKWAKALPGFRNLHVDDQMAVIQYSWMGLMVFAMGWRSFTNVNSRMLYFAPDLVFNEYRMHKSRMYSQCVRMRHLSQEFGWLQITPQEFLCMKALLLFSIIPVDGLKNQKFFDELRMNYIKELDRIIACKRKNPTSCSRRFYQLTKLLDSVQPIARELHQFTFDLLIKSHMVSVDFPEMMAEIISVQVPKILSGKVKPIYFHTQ
Target sequence in this assay (P40337 whole entry): as the sequence (P40337 whole entry) above

[7] = biological target: T3, von Hippel-Lindau disease tumor suppressor/Androgen receptor; assay: PROTAC activity at VHL/AR in human LNCaP cells assessed as maximum degradation of AR at 75 uM incubated for 16 hrs by Western blot analysis relative to control; format: cell-based
Target sequence in this assay (P10275 whole entry, looked up): as the sequence (P10275 whole entry) above
Target sequence in this assay (P40337 whole entry, looked up): as the sequence (P40337 whole entry) above

[8] = biological target: T4, Von Hippel-Lindau disease tumor suppressor/Elongin B/Elongin C (Homo sapiens, UniProt P40337); assay: Inhibition of VHL/Elongin B/Elogin C (unknown origin) using FAM-DEALA-Hyp-YIPD as substrate by fluorescence polarization assay; format: protein-complex assay
[9] = biological target: T5, von Hippel-Lindau disease tumor suppressor (Homo sapiens, UniProt P40337); assay: Binding affinity to VHL (unknown origin) assessed as dissociation constant by fluorescence polarization assay
[10] = biological target: T4, Von Hippel-Lindau disease tumor suppressor/Elongin B/Elongin C; assay: Inhibition of VHL (unknown origin) (1 to 213 residues)/ElonginC/ElonginB expressed in Escherichia coli BL21 (DE3) using (FAM)-labeled HIF-1alpha peptide as substrate incubated for 2 hrs by fluorescence polarization assay
[11] = biological target: T6, von Hippel-Lindau disease tumor suppressor/Epidermal growth factor receptor (Homo sapiens, UniProt P00533+P40337); assay: PROTAC activity at VHL/wild type EGFR in human OVCAR-8 cells assessed as protein degradation incubated for 24 hrs by immunoblot analysis; format: cell-based
[12] = biological target: T6, von Hippel-Lindau disease tumor suppressor/Epidermal growth factor receptor; assay: PROTAC activity at VHL/wild type EGFR in human OVCAR-8 cells assessed as maximal degradation incubated for 24 hrs by immunoblot analysis relative to control; format: cell-based
Target sequence in this assay (P00533 25-1210 limits assumed): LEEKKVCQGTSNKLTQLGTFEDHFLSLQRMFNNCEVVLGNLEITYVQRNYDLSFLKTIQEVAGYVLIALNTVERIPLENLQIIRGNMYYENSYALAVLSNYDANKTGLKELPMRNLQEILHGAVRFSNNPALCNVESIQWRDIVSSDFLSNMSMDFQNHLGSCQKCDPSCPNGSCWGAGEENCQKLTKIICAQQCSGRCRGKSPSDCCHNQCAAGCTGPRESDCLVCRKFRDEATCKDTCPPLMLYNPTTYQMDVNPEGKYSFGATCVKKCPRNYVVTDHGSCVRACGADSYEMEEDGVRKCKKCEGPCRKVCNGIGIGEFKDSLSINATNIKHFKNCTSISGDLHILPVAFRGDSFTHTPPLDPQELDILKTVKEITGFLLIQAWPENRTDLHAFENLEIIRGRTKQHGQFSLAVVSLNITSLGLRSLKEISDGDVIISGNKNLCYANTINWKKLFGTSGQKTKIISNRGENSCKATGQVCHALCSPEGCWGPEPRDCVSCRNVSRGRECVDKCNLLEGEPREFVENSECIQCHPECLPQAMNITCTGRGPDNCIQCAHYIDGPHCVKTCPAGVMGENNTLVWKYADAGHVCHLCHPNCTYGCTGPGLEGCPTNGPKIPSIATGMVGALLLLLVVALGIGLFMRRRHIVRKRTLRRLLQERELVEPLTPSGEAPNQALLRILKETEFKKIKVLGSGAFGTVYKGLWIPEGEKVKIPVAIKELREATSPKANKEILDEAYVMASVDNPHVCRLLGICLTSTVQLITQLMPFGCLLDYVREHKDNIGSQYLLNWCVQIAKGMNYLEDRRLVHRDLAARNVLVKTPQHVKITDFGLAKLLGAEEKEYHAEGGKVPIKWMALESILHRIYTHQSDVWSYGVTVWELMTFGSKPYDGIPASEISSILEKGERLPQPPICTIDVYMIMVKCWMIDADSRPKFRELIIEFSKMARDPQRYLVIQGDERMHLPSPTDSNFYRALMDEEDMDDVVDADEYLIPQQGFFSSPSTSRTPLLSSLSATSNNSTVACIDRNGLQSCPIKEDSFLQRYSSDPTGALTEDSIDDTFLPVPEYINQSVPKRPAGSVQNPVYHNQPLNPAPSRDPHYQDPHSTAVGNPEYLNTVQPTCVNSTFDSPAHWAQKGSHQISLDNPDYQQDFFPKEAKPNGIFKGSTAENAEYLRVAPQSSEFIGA
Target sequence in this assay (P40337 whole entry partner): as the sequence (P40337 whole entry) above

[13] = biological target: T6, von Hippel-Lindau disease tumor suppressor/Epidermal growth factor receptor; assay: PROTAC activity at VHL/EGFR Ex20ins mutant in human HeLa cells assessed as protein degradation incubated for 24 hrs by immunoblot analysis; format: cell-based
[14] = system: von Hippel-Lindau disease tumor suppressor/Epidermal growth factor receptor (Homo sapiens), P00533+P40337 [UNDEFINED MUTATION]; assay: PROTAC activity at VHL/EGFR Ex20ins mutant in human HeLa cells assessed as maximal degradation incubated for 24 hrs by immunoblot analysis relative to control; format: cell-based
[15] = PROTAC activity at VHL/N-terminal His-tagged human p38alpha expressed in […] assessed as p38alpha degradation
[16] = system: von Hippel-Lindau disease tumor suppressor/Mitogen-activated protein kinase 14; assay: PROTAC activity at VHL/N-terminal His-tagged human p38alpha expressed in […] assessed as maximal degradation relative to control
[17] = biological target: T5, von Hippel-Lindau disease tumor suppressor; assay: Inhibition of NanoLuc-fused VHL (unknown origin) transfected in live HEK293 cells using NanoGlo as substrate incubated for 1 hrs by tracer based NanoBRET assay; format: cell-based
[18] = biological target: T5, von Hippel-Lindau disease tumor suppressor; assay: Binding affinity to NanoLuc-fused VHL (unknown origin) transfected in live HEK293 cells using NanoGlo as substrate assessed as dissociation constant incubated for 1 hrs by tracer based NanoBRET assay; format: cell-based
[19] = biological target: T2, von Hippel-Lindau disease tumor suppressor/Bromodomain-containing protein 2; assay: PROTAC activity at human VHL/BRD2 in human HeLa cells assessed as maximum degradation of BRD2 measured after 18 hrs by Western blot analysis relative to control; format: cell-based
[20] = biological target: T2, von Hippel-Lindau disease tumor suppressor/Bromodomain-containing protein 2; assay: PROTAC activity at human VHL/BRD2 in human HeLa cells assessed as […] incubated for 16 hrs by Western blot analysis; format: cell-based
Target sequence in this assay (P25440 whole entry): as the sequence (P25440 whole entry) above
Target sequence in this assay (P40337 whole entry): as the sequence (P40337 whole entry) above

[21] = system: von Hippel-Lindau disease tumor suppressor/Bromodomain-containing protein 4; assay: PROTAC activity at human VHL/BRD4 in human HeLa cells assessed as maximum degradation of BRD4 measured after 18 hrs by Western blot analysis relative to control
[22] = PROTAC activity at human VHL/BRD4 in human HeLa cells assessed as degradation of BRD4 incubated for 16 hrs by Western blot analysis
[23] = biological target: T1, von Hippel-Lindau disease tumor suppressor/Bromodomain-containing protein 3; assay: PROTAC activity at human VHL/BRD3 in human HeLa cells assessed as […] incubated for 16 hrs by Western blot analysis; format: cell-based
Target sequence in this assay (Q15059 whole entry): as the sequence (Q15059 whole entry) above
Target sequence in this assay (P40337 whole entry): as the sequence (P40337 whole entry) above

[24] = biological target: T1, von Hippel-Lindau disease tumor suppressor/Bromodomain-containing protein 3; assay: PROTAC activity at human VHL/BRD3 in human HeLa cells assessed as maximum degradation of BRD3 measured after 18 hrs by Western blot analysis relative to control; format: cell-based

T5 sequence (P40337 whole entry, the tested form may be a part): as the sequence (P40337 whole entry) above
T4 sequence (P40337 whole entry, looked up): as the sequence (P40337 whole entry) above

Compound: Cc1ncsc1-c1ccc([C@H](C)NC(=O)[C@@H]2C[C@@H](O)CN2C(=O)[C@@H](NC(=O)COCCOCCOCCNC(=O)C[C@@H]2N=C(c3ccc(Cl)cc3)c3c(sc(C)c3C)-n3c(C)nnc32)C(C)(C)C)cc1
DC50 [1]: < 0.005 µM | EC50 [2]: 0.09 µM | DC50 [3]: < 0.005 µM | DC50 [4]: < 0.005 µM | Emax [5]: > 99%

Compound: Cc1cc([C@H](C(=O)N2C[C@H](S(=O)(=O)F)C[C@H]2C(=O)N[C@@H](CC(=O)N2CCC(C#Cc3ccc(C(=O)N[C@H]4C(C)(C)[C@H](Oc5ccc(C#N)c(Cl)c5)C4(C)C)cc3)CC2)c2ccc(-c3scnc3C)cc2)C(C)C)on1
DC50 [6]: 0.212 µM | Emax [7]: 59%

Compound: O=C(NCc1ccc(Cl)cc1)[C@@H]1C[C@@H](O)CN1C(=O)c1ccccc1Cl
IC50 [8]: 52 µM

Compound: Cc1ncsc1-c1ccc(CNC(=O)[C@@H]2C[C@@H](O)CN2C(=O)c2cccc(N)c2C)cc1
IC50 [10]: 10.1 µM

Compound: Cc1ncsc1-c1ccc(CNC(=O)[C@@H]2C[C@@H](O)CN2C(=O)[C@H](NC(=O)COCCOCCOc2ccc(-c3ccc4ncnc(Nc5ccc(OCc6cccc(F)c6)c(Cl)c5)c4c3)cc2)C(C)(C)C)cc1
DC50 [11]: 0.0392 µM | Emax [12]: 97.6% | DC50 [13]: 0.736 µM | Emax [14]: 68.8%

Compound: COc1cc2c(Oc3ccc(NC(=O)C4(C(=O)Nc5ccc(F)cc5)CC4)cc3F)ccnc2cc1OCCOCCOCCOc1cc(-c2scnc2C)ccc1CNC(=O)[C@@H]1C[C@@H](O)CC1C(=O)[C@H](C(C)C)C1Cc2ccccc2C1=O (stereo partly specified)
DC50 [15]: 0.0662 µM | Emax [16]: 99.4%

Compound: Cc1ncsc1-c1ccc([C@H](C)NC(=O)[C@H]2C[C@H](O)CN2C(=O)[C@H](NC(=O)COCCOCCOCCNC(=O)C[C@@H]2N=C(c3ccc(Cl)cc3)c3c(sc(C)c3C)-n3c(C)nnc32)C(C)(C)C)cc1
Emax [19]: 98% | DC50 [20]: 0.04 µM | Emax [21]: 100% | DC50 [22]: 0.003 µM | DC50 [23]: 0.1 µM | Emax [24]: 100%

Results, then the compound that gave them:

Kd [9]: 0.097 µM
Compound: Cc1ncsc1-c1ccc(CNC(=O)[C@@H]2C[C@@H](O)CN2C(=O)[C@H](NC(=O)C2(C#N)CC2)C(C)(C)C)cc1F

Kd [9]: 0.186 µM
Compound: Cc1ncsc1-c1ccc([C@H](C)NC(=O)[C@@H]2C[C@@H](O)CN2C(=O)[C@H](NC(=O)C2(C#N)CC2)C(C)(C)C)cc1F

Kd [9]: 0.149 µM
Compound: Cc1cc(-c2scnc2C)ccc1CNC(=O)[C@@H]1C[C@@H](O)CN1C(=O)[C@H](NC(=O)C1(C#N)CC1)C(C)(C)C

Kd [9]: 6.24 µM
Compound: COc1cc(-c2scnc2C)cc(OC)c1CNC(=O)[C@@H]1C[C@@H](O)CN1C(=O)[C@H](NC(=O)C1(C#N)CC1)C(C)(C)C

Kd [9]: 1.04 µM
Compound: Cc1ncsc1-c1cc2c(cc1F)[C@@H](NC(=O)[C@@H]1C[C@@H](O)CN1C(=O)[C@H](NC(=O)C1(F)CC1)C(C)(C)C)CCCC2

IC50 [17]: 0.13 µM | Kd [18]: 0.063 µM
Compound: CC(=O)N[C@H](C(=O)N1C[C@H](O)C[C@H]1C(=O)N[C@@H](C)c1ccc(-c2scnc2C)cc1)C(C)(C)C

Kd [9]: 0.528 µM
Compound: Cc1cc(-c2scnc2C)c(C)cc1CNC(=O)[C@@H]1C[C@@H](O)CN1C(=O)[C@H](NC(=O)C1(C#N)CC1)C(C)(C)C

DC50 [15]: 0.00716 µM | Emax [16]: 97.4%
Compound: COc1cc2c(Oc3ccc(NC(=O)C4(C(=O)Nc5ccc(F)cc5)CC4)cc3F)ccnc2cc1OCCCCOCCCCOCC(=O)N[C@@H](C(=O)N1C[C@H](O)C[C@H]1C(=O)NCc1ccc(-c2scnc2C)cc1)C(C)(C)C
